Patent US11766405B2 (MEDAC GESELLSCHAFT FUR KLINISCHE SPEZIALPRAPARATE MBH, priority 2013, dated 2023)
Several values for one entry are separate records, joined by “and”; a condition that tells them apart may be missing. Equal values may be shown once.

Columns and labels:
Type in all cases: physicochemical
[1] = Impurities / purity, process 4 (impurities process Ph Eur 8.0 Mitomycin Monograph); details: for Impurity albomitomycin C / Sum of all impurities: Example 13 urea lyophilisate, process 4; for Mitomycin purity: No. 7: DMSO 100 wt.-%, 1.82 mg/g mitomycin C, 27.3 mg/g urea, room temperature, exclusion of light
Procedure: The composition according to the invention comprises the impurities D1, D2 and albomitomycin C in a total quantity of in particular less than 2.0%, preferably less than 1.5%, particularly preferably less than 1.0%, more preferably less than 0.8% and quite particularly preferably less than 0.6%, wherein the quantity of these impurities is determined according to the impurities process according to Ph Eur 8.0 Mitomycin Monograph January 2008: 1655. In the examples, this determination process is also referred to as process 4.
(§1) The solutions were stored at room temperature and with exclusion of light for a period of up to 71.5 hours.
Process 3 corresponds to the content process according to Ph Eur 8.0 Mitomycin Monograph January 2008: 1655. Process 4 corresponds to the impurities process according to Ph Eur 8.0 Mitomycin Monograph January 2008: 1655.
(§2) The reconstitution was effected with 20 and 40 ml respectively of isotonic saline solution to an end concentration of 1 mg/ml.

[2] = Reconstitution time of lyophilisates; details: Example 13 urea lyophilisate
Procedure: Moreover, the lyophilisates could be completely reconstituted with isotonic saline solution in very much less than 30 secs.
In addition, the reconstitution time was determined.
as §2

[3] = HPLC determination of impurities / mitomycin purity, process 2 (UV 254 nm)
Procedure: Column: YMC-Pack Phenyl 4.6 mm×300 mm, 10 μm […]
Purity determinations according to process 2 were performed at different times. […]

[4] = Mitomycin C content, process 3 (content process Ph Eur 8.0 Mitomycin Monograph); details: for Mitomycin C content: process 3; for Mitomycin content: No. 6: DMSO/DMAA 5.7/94.3 wt.-%, 0.53 mg/g mitomycin C, 8.0 mg/g urea, room temperature, exclusion of light
Procedure: as §1
Process 3 corresponds to the content process according to Ph Eur 8.0 Mitomycin Monograph January 2008: 1655. Process 4 corresponds to the impurities process according to Ph Eur 8.0 Mitomycin Monograph January 2008: 1655. […]

[5] = 20 mg mitomycin C, 40° C. and 75% r.h., t = 3 months
[6] = 20 mg mitomycin C, 40° C. and 75% r.h., t = 6 months
[7] = 40 mg mitomycin C, 40° C. and 75% r.h., t = 3 months
[8] = 40 mg mitomycin C, 40° C. and 75% r.h., t = 6 months

CO[C@@]12[C@H](COC(N)=O)C3=C(C(=O)C(C)=C(N)C3=O)N1C[C@@H]1N[C@@H]12 [Mitomycin C, (1aS,8S,8aR,8bS)-6-amino-8-[[(aminocarbonyl)oxy]methyl]-1,1a,2,8,8a,8b-hexahydro-8a-methoxy-5-methyl-azirino[2′,3′:3,4]pyrrolo[1,2-a]indol-4,7-dione]
Impurity albomitomycin C [1, 5]: 0.20% | Sum of all impurities [1, 5]: 0.55% | Impurity albomitomycin C [1, 6]: 0.26% | Sum of all impurities [1, 6]: 0.61% | Impurity albomitomycin C ([1]; 20 mg mitomycin C, t = 0): 0.29% | Sum of all impurities ([1]; 20 mg mitomycin C, t = 0): 0.29% | Impurity albomitomycin C [1, 7]: 0.22% | Sum of all impurities [1, 7]: 0.55 | Impurity albomitomycin C [1, 8]: 0.21% | Sum of all impurities [1, 8]: 0.58 | Impurity albomitomycin C ([1]; 40 mg mitomycin C, t = 0): 0.32% | Sum of all impurities ([1]; 40 mg mitomycin C, t = 0): 0.32 | Mitomycin purity ([1]; t = 0): 100% | Mitomycin purity ([1]; t = 4 h): 99.31% | Mitomycin purity ([1]; t = 6.5 h): 99.32% | Mitomycin purity ([1]; t = 13 h): 99.19% | Mitomycin purity ([1]; t = 20 h): 99.36% | Mitomycin purity ([1]; t = 26.5 h): 99.32% | Reconstitution time ([2]; 20 mg mitomycin C, 20 ml isotonic saline to 1 mg/ml, 40° C. and 75% r.h., t = 3 months): 12 s | Reconstitution time ([2]; 20 mg mitomycin C, 20 ml isotonic saline to 1 mg/ml, 40° C. and 75% r.h., t = 6 months): 17 s | Reconstitution time ([2]; 20 mg mitomycin C, 20 ml isotonic saline to 1 mg/ml, t = 0): 7 s | Reconstitution time ([2]; 40 mg mitomycin C, 40 ml isotonic saline to 1 mg/ml, 40° C. and 75% r.h., t = 3 months): 20 s | Reconstitution time ([2]; 40 mg mitomycin C, 40 ml isotonic saline to 1 mg/ml, 40° C. and 75% r.h., t = 6 months): 18 s | Reconstitution time ([2]; 40 mg mitomycin C, 40 ml isotonic saline to 1 mg/ml, t = 0): 6 s | Mitomycin purity [3]: 98.86% and 96.77% and 97.04% | Mitomycin purity ([3]; Example 5 solution: 3.33 mg/g mitomycin C, 5 wt.-% urea, 89/11 wt.-% tert.-butanol/water, 5° C. with exclusion of light, t = 0): 99.23% | Mitomycin purity ([3]; Example 5 solution: 3.33 mg/g mitomycin C, 5 wt.-% urea, 89/11 wt.-% tert.-butanol/water, 5° C. with exclusion of light, t = 6 h): 99.18% | Mitomycin purity ([3]; Example 5 solution: 3.33 mg/g mitomycin C, 5 wt.-% urea, 89/11 wt.-% tert.-butanol/water, 5° C. with exclusion of light, t = 24 h): 99.20% | Mitomycin purity ([3]; Example 5 solution: 3.33 mg/g mitomycin C, 5 wt.-% urea, 89/11 wt.-% tert.-butanol/water, 5° C. with exclusion of light, t = 72 h): 98.80% | Mitomycin purity ([3]; Example 5 solution: 3.33 mg/g mitomycin C, 5 wt.-% urea, 89/11 wt.-% tert.-butanol/water, 5° C. with exclusion of light, t = 9 d): 98.21% | Mitomycin purity ([3]; Example 5 solution: 3.33 mg/g mitomycin C, 5 wt.-% urea, 89/11 wt.-% tert.-butanol/water, RT with exclusion of light, t = 0): 99.33% | Mitomycin purity ([3]; Example 5 solution: 3.33 mg/g mitomycin C, 5 wt.-% urea, 89/11 wt.-% tert.-butanol/water, RT with exclusion of light, t = 6 h): 98.83% | Mitomycin purity ([3]; Example 5 solution: 3.33 mg/g mitomycin C, 5 wt.-% urea, 89/11 wt.-% tert.-butanol/water, RT with exclusion of light, t = 24 h): 97.80% | Mitomycin purity ([3]; Example 5 solution: 3.33 mg/g mitomycin C, 5 wt.-% urea, 89/11 wt.-% tert.-butanol/water, RT with exclusion of light, t = 72 h): 96.74% | Mitomycin purity ([3]; Example 5 solution: 3.33 mg/g mitomycin C, 5 wt.-% urea, 89/11 wt.-% tert.-butanol/water, RT with exclusion of light, t = 9 d): 96.35% | Mitomycin purity ([3]; Example 5 solution: 3.33 mg/g mitomycin C, 5 wt.-% urea, 89/11 wt.-% tert.-butanol/water, RT without protection against light, t = 0): 99.32% | Mitomycin purity ([3]; Example 5 solution: 3.33 mg/g mitomycin C, 5 wt.-% urea, 89/11 wt.-% tert.-butanol/water, RT without protection against light, t = 6 h): 98.83% | Mitomycin purity ([3]; Example 5 solution: 3.33 mg/g mitomycin C, 5 wt.-% urea, 89/11 wt.-% tert.-butanol/water, RT without protection against light, t = 24 h): 97.60% | Mitomycin purity ([3]; Example 5 solution: 3.33 mg/g mitomycin C, 5 wt.-% urea, 89/11 wt.-% tert.-butanol/water, RT without protection against light, t = 72 h): 96.14% | Mitomycin purity ([3]; Example 5 solution: 3.33 mg/g mitomycin C, 5 wt.-% urea, 89/11 wt.-% tert.-butanol/water, RT without protection against light, t = 9 d): 95.78% | Mitomycin C purity ([3]; Example 7 solution: 1.33 mg/g mitomycin C, 20 mg/g urea, 89/11 wt.-% tert.-butanol/water, 5° C. with exclusion of light, t = 27 h): 99.7% | Mitomycin C purity ([3]; Example 7 solution: 1.33 mg/g mitomycin C, 20 mg/g urea, 89/11 wt.-% tert.-butanol/water, RT with exclusion of light, t = 5 h): 99.7% | Mitomycin C purity ([3]; Example 7 solution: 1.33 mg/g mitomycin C, 20 mg/g urea, 89/11 wt.-% tert.-butanol/water, RT with exclusion of light, t = 22 h): 99.2% | Mitomycin C purity ([3]; Example 7 solution: 1.33 mg/g mitomycin C, 20 mg/g urea, 89/11 wt.-% tert.-butanol/water, RT with exclusion of light, t = 27 h): 98.9% | Mitomycin C purity ([3]; Example 8 solution: 1.67 mg/g mitomycin C, 25 mg/g urea, 89/11 wt.-% tert.-butanol/water, RT with exclusion of light, t = 5 h): 99.6% | Mitomycin C purity ([3]; Example 8 solution: 1.67 mg/g mitomycin C, 25 mg/g urea, 89/11 wt.-% tert.-butanol/water, RT with exclusion of light, t = 22 h): 99.1% | Mitomycin C purity ([3]; Example 8 solution: 1.67 mg/g mitomycin C, 25 mg/g urea, 89/11 wt.-% tert.-butanol/water, RT with exclusion of light, t = 27 h): 98.6% | Mitomycin C content ([4]; Example 13 urea lyophilisate, 20 mg mitomycin C, 40° C. and 75% r.h., t = 3 months): 98.2% | Mitomycin C content ([4]; Example 13 urea lyophilisate, 20 mg mitomycin C, 40° C. and 75% r.h., t = 6 months): 98.3% | Mitomycin C content ([4]; Example 13 urea lyophilisate, 20 mg mitomycin C, t = 0): 97.8% | Mitomycin C content ([4]; Example 13 urea lyophilisate, 40 mg mitomycin C, 40° C. and 75% r.h., t = 3 months): 96.6% | Mitomycin C content ([4]; Example 13 urea lyophilisate, 40 mg mitomycin C, 40° C. and 75% r.h., t = 6 months): 96.7% | Mitomycin C content ([4]; Example 13 urea lyophilisate, 40 mg mitomycin C, t = 0): 97.2% | Mitomycin C content ([4]; Example 14 urea lyophilisate (20 mg) reconstituted with water for injection, end concentration 1 mg/ml): 100.6% | Mitomycin C content ([4]; Example 14 urea lyophilisate (20 mg) reconstituted with water for injection, end concentration 2 mg/ml): 100.6% | Mitomycin content ([4]; t = 0): 100% | Mitomycin content ([4]; t = 6.5 h): 99.93% | Mitomycin content ([4]; t = 14.5 h): 99.62% | Mitomycin content ([4]; t = 21 h): 98.84% | Mitomycin content ([4]; t = 42 h): 99.11% | Mitomycin content ([4]; t = 71.5 h): 98.58%
